Measured values: publication PMC9804871, “Effect of Opicapone on Levodopa Pharmacokinetics in Patients with Fluctuating Parkinson's Disease” (Movement Disorders, 2022)
Marks after values point to notes of the source that are not given here.

Experiments:
[1] = 12-hour levodopa plasma pharmacokinetics; type: in vivo, human (patients with PD); conditions: for Levodopa AUCτ / Levodopa Cavg / Levodopa Cmax / Levodopa Cmin: mean; for Levodopa tmax: median; for Levodopa Cmax (over all intakes of the 12-hour pharmacokinetics; Cmax,max) / Levodopa Cmin (over all intakes, excluding first predose; Cmin,min): mean (%CV); for Levodopa Cmin,min, geometric mean (90% CI): N 11; for Levodopa Cmax,max, geometric mean (90% CI): N 12
Procedure: The study design is illustrated in Figure 1.
Pharmacokinetic evaluation occurred over 12 hours with sampling every 30 minutes, except for the last sample following each LD dose in the opicapone plus four LD intake regimen, which was sampled at 1 hour. The main pharmacokinetics parameters assessed included maximum observed plasma concentration (Cmax), time to achieve peak plasma levels (tmax), minimum observed plasma concentration (Cmin), plasma elimination half‐life (t1/2), area under the curve (AUC), and fluctuation index (FI; as an expression of peak‐to‐trough fluctuation, Cmax, and Cmin, relative to average concentration [Cavg]). The pharmacokinetics of the LD metabolite 3‐O‐methyldopa (3‐OMD) was also evaluated.
Descriptive statistics were used to summarize the pharmacokinetics parameters for LD and 3‐OMD for each of the three regimens. […] No formal comparison was performed between opicapone regimens.

[2] = tested on: patients with PD and end-of-dose motor fluctuations; assay: 24-hour patient Hauser on/off diary; type: in vivo, human (patients with PD); conditions: for ON-time With Non-Troublesome Dyskinesia / ON-time With Troublesome Dyskinesia / ON-time Without Dyskinesia / Total OFF-time / Total ON-time: 24-hour Hauser diary, mean (SD); for 24-h total off time, geometric mean (90% CI) / 24-h total on time, geometric mean (90% CI): N 12
Procedure: Clinical and safety/tolerability outcomes were also assessed as exploratory secondary outcomes. Clinical outcomes included on and off time assessed using patient‐rated tools. The timing of on and off states was registered (in real time) by the investigators during the matching 12‐hour pharmacokinetic evaluation (as such applied on pharmacokinetics days only), and patients also completed 24‐hour patient Hauser on/off diary charts[21] (in 30‐minute blocks) during the 3 days before each pharmacokinetic visit. Diary states of interest were off time and on time, including on without dyskinesia, on with nontroublesome dyskinesia, and on with troublesome dyskinesia. In addition, the Patient Global Impression of Change (PGI‐C) of opicapone 50 mg was evaluated at the end of the LD/CD 400/100 mg plus opicapone treatment compared with before the start of opicapone treatment.[22] Safety and tolerability endpoints included treatment‐emergent adverse events (TEAEs), serious TEAEs, and TEAEs leading to discontinuation.
Clinical outcomes are also presented descriptively. A paired t test was used for the comparison of 12‐hour off and on time, 24‐hour off and on time, time to on, and time to best on between each opicapone‐containing regimen and the regimen without opicapone. Estimates of mean difference and corresponding 90% CIs were reported for all main variables.

[3] = five-intake LD/CD 500/125 mg vs five-intake LD/CD 400/100 mg plus opicapone 50 mg, first LD/CD intake
[4] = five-intake LD/CD 500/125 mg vs five-intake LD/CD 400/100 mg plus opicapone 50 mg, fourth LD/CD intake
[5] = five-intake LD/CD 500/125 mg vs five-intake LD/CD 400/100 mg plus opicapone 50 mg
[6] = five-intake LD/CD 500/125 mg vs five-intake LD/CD 400/100 mg plus opicapone 50 mg, second LD/CD intake
[7] = five-intake LD/CD 500/125 mg vs five-intake LD/CD 400/100 mg plus opicapone 50 mg, third LD/CD intake
[8] = five-intake LD/CD 500/125 mg vs four-intake LD/CD 400/100 mg plus opicapone 50 mg, first LD/CD intake
[9] = five-intake LD/CD 500/125 mg vs four-intake LD/CD 400/100 mg plus opicapone 50 mg, fourth LD/CD intake
[10] = five-intake LD/CD 500/125 mg vs four-intake LD/CD 400/100 mg plus opicapone 50 mg
[11] = five-intake LD/CD 500/125 mg vs four-intake LD/CD 400/100 mg plus opicapone 50 mg, second LD/CD intake
[12] = five-intake LD/CD 500/125 mg vs four-intake LD/CD 400/100 mg plus opicapone 50 mg, third LD/CD intake
[13] = five-intake levodopa/carbidopa 500/125 mg vs five-intake levodopa/carbidopa 400/100 mg plus opicapone 50 mg
[14] = five-intake levodopa/carbidopa 500/125 mg vs four-intake levodopa/carbidopa 400/100 mg plus opicapone 50 mg
[15] = 5-intake LD/CD 500/125mg vs 4-intake LD/CD 400/100mg plus OPC 50mg
[16] = 5-intake LD/CD 500/125mg vs 5-intake LD/CD 400/100mg plus OPC 50mg

## levodopa/carbidopa [LD/CD]
[1]; [3]
  Levodopa AUCτ: 1788^b h · ng/mL
  Levodopa Cavg: 596^b ng/mL
  Levodopa Cmax: 1356 ng/mL
  Levodopa Cmin: 18.1 ng/mL
  Levodopa tmax: 0.5 h
[1]; [4]
  Levodopa AUCτ: 2871^d h · ng/mL
  Levodopa Cavg: 957^d ng/mL
  Levodopa Cmax: 1540 ng/mL
  Levodopa Cmin: 455 ng/mL
  Levodopa tmax: 1.5 h
[1]; [5]
  Levodopa Cmax (over all intakes of the 12-hour pharmacokinetics; Cmax,max): 1999 (26.3) ng/mL
  Levodopa Cmin (over all intakes, excluding first predose; Cmin,min): 267.0 (82.9) ng/mL
[1]; [6]
  Levodopa AUCτ: 2269^b h · ng/mL
  Levodopa Cavg: 756^b ng/mL
  Levodopa Cmax: 1466 ng/mL
  Levodopa Cmin: 283 ng/mL
  Levodopa tmax: 1.0 h
[1]; [7]
  Levodopa AUCτ: 2871^d h · ng/mL
  Levodopa Cavg: 957^d ng/mL
  Levodopa Cmax: 1530 ng/mL
  Levodopa Cmin: 365 ng/mL
  Levodopa tmax: 0.5 h
[1]; [8]
  Levodopa AUCτ: 2076 ng·h/mL
  Levodopa Cavg: 692 ng/mL
  Levodopa Cmax: 1393 ng/mL
  Levodopa Cmin: 18.6 ng/mL
  Levodopa tmax: 0.75 h
[1]; [9]
  Levodopa AUCτ: 3414^d h · ng/mL
  Levodopa Cavg: 1138^d ng/mL
  Levodopa Cmax: 1852 ng/mL
  Levodopa Cmin: 559 ng/mL
  Levodopa tmax: 1.5 h
[1]; [10]
  Levodopa Cmax (over all intakes of the 12-hour pharmacokinetics; Cmax,max): 2130 (25.8) ng/mL
  Levodopa Cmin (over all intakes, excluding first predose; Cmin,min): 264.5 (32.8) ng/mL
[1]; [11]
  Levodopa AUCτ: 2637^c h · ng/mL
  Levodopa Cavg: 879^c ng/mL
  Levodopa Cmax: 1751 ng/mL
  Levodopa Cmin: 266 ng/mL
  Levodopa tmax: 1.5 h
[1]; [12]
  Levodopa AUCτ: 2850^f h · ng/mL
  Levodopa Cavg: 950^f ng/mL
  Levodopa Cmax: 1310 ng/mL
  Levodopa Cmin: 403 ng/mL
  Levodopa tmax: 1.5 h
[1]; [13]
  Levodopa Cmin,min, geometric mean (90% CI): 218.9 (156.1, 307.0) ng/mL
  Levodopa Cmax,max, geometric mean (90% CI): 1931 (1667, 2237) ng/mL
[1]; [14]
  Levodopa Cmin,min, geometric mean (90% CI): 252.2 (211.4, 301.0) ng/mL
  Levodopa Cmax,max, geometric mean (90% CI): 2059 (1782, 2380) ng/mL
[2]; [15]
  ON-time With Non-Troublesome Dyskinesia: 86.7 (72.6) min
  ON-time With Troublesome Dyskinesia: 35.0 (26.5) min
  ON-time Without Dyskinesia: 411.7 (122.6) min
  Total OFF-time: 442.50 (96.3) min
  Total ON-time: 488.3 (110.9) min
[2]; [16]
  ON-time With Non-Troublesome Dyskinesia: 66.4 (48.0) min
  ON-time With Troublesome Dyskinesia: 20.0 (24.49) min
  ON-time Without Dyskinesia: 446.7 (110.0) min
  Total OFF-time: 431.70 (100.3) min
  Total ON-time: 519.2 (91.2) min
[2]; [13]
  24-h total off time, geometric mean (90% CI): 420.3 (369.8, 477.6) min
  24-h total on time, geometric mean (90% CI): 512.5 (470.9, 557.9) min
[2]; [14]
  24-h total off time, geometric mean (90% CI): 433.0 (386.4, 485.0) min
  24-h total on time, geometric mean (90% CI): 476.5 (421.9, 538.2) min
